Source: patent US20240382484A1, “COMPOSITION FOR TREATING, PREVENTING, OR AMELIORATING MELANOMA AND METHOD THEREOF” (Thomas Jefferson University, priority 2021, published 2024)

Tests used:
[1] = system: human NRAS mutant melanoma cell lines; test: 72 hours drug combination, cell density by IncuCyte, synergy by Combenefit with Loewe method; assay type: cell-based; conditions: WM1361A, WM1366, SK-MEL-30 and SK-MEL-173, 72 hours
Description: FIG. 2A: NRAS mutant melanoma cell line WM1361A, WM1366, SK-MEL-30, SK-MEL-173, 1007 and 1014 were treated for 72 hours as indicated with GSK2334470 and trametinib and analyzed for cell density by IncuCyte. Synergy graphs were generated utilizing Combenefit Software with Loewe method. Data are represented as the mean from three biological independent experiments. FIG. 2B: WM1361A, WM1366, SK-MEL-30 or SK-MEL-173 cells were treated with GSK2334470 (PDPK1i) and trametinib (tram) alone or in combination (comb) at the indicated concentrations for 7 days. Cell growth was monitored by IncuCyte every 2 hours. Media were replaced twice with drugs during culture. Data are represented as the mean±SEM of three biological independent experiments. p values were calculated with an unpaired two-tailed t test. n.s., not significant.
FIG. 10A-10B: Cas9 expressed clone WM1361A-iCas9 #1 (FIG. 10A), and WM1366-iCas9 #11 (FIG. 10B) cells were treated for 72 hours as indicated with GSK2334470 and trametinib and analyzed for cell density by IncuCyte. Synergy graphs were generated utilizing Combenefit Software with Loewe method. Data are represented as the mean from three biological independent experiments.
FIG. 11A: WM1361A, WM1366, SK-MEL-30 and SK-MEL-173 cells were treated for 72 hours as indicated with GSK2334470 and PD0325901 and analyzed for cell density by IncuCyte. Synergy graphs were generated utilizing Combenefit Software with Loewe method. Data are represented as the mean from three biological independent experiments. FIG. 11B: WM1361A, WM1366, SK-MEL-30 or SK-MEL-173 cells were treated with GSK2334470 (PDPK1i) and PD0325901 (PD901) alone or in combination (Comb) at the indicated concentrations for 7 days. Cell growth was monitored by IncuCyte every 2 hours. Data are represented as the mean±SEM of three biological independent experiments. p values were calculated with an unpaired two-tailed t test. n.s., not significant.
FIG. 16A: WM1361A and WM1366 cells were treated for 72 hours with indicated inhibitors and analyzed for cell density by IncuCyte. Synergy graphs were generated utilizing Combenefit Software with Loewe method. Data are represented as the mean from three biological independent experiments.
To further analyze synergistic effects, the growth response of a panel of several NRAS mutant cells to titrated PDPK1i (GSK2334470) and MEKi (trametinib) combinations was assessed.
Human WM1361A and WM1366 melanoma cell lines were cultured in MCDB153 (Sigma) with 2% FBS, 20% Leibowitz L-15 medium, and 5 μg/mL insulin (WM medium). Human SK-MEL-30 and SK-MEL-173 melanoma cell lines were cultured in RPMI-1640 with 10% FBS. […] All cells were cultured at 37° C. in a humidified atmosphere containing 5% CO2. […] Cell lines were STR analyzed, confirmed for NRAS/Nras mutation, and tested to be mycoplasma-free during experiments. For cell proliferation and drug response, cells were monitored by IncuCyte® (Essen Bioscience, Ann Arbor, MI) every 2 hours.

1014 tumors = test: Flow cytometry of tumor-infiltrating immune cells from 1014 tumors; assay type: in vivo, mouse; conditions: day 7 post treatment, over the control group
1014 cells = test: 1014 cell growth for 7 days monitored by IncuCyte; assay type: cell-based, mouse; conditions: in vitro
SK-MEL-30 xenografts = test: SK-MEL-30 xenograft model in Nu/J mice; assay type: in vivo, mouse; conditions: trametinib chow and/or GSK2334470 100 mg/kg intraperitoneally every 3 days
Description: FIG. 4A-4B, In Nu/J mice, SK-MEL-30 tumor growth (FIG. 4A) represented as the change in volume (mm^3) over time and Kaplan-Meier survival curves (FIG. 4B) were shown from the start of treatment as indicated. Ctrl: control chow+mock injection (n=7), Tram: trametinib chow+mock injection (n=7), G4470: control chow+GSK2334470 injection (n=5), Comb: trametinib chow+GSK2334470 injection (n=7). Mice were injected and tumor volume was monitored every 3 days. Data are represented as the mean±SEM. The dotted line at 1000 mm^3 marks the experimental endpoint. p values were calculated by GraphPad Prism 9.0 with Log-rank (Mantel-Cox) test. n.s., not significant. […]
FIGS. 14A-14B: Sex disparities in SK-MEL-30 xenografts, in accordance with some embodiments. […] Mice were injected and tumor volume was monitored every 3 days. […] The dotted line at 1000 mm^3 marks the experimental endpoint. p values were calculated by GraphPad Prism 9.0 with Log-rank (Mantel-Cox) test. n.s., not significant.
Animal experiments were performed at Thomas Jefferson University in a facility accredited by the Association for the Assessment and Accreditation of Laboratory Animal Care and were approved by the Institutional Animal Care and Use Committee (protocol #1052). […] Mouse weights were monitored once a week or three times per week during drug treatment. […]

For `O=C(NOC[C@H](O)CO)c1ccc(F)c(F)c1Nc1ccc(I)cc1F` [PD0325901, (R)—N-(2,3-dihydroxypropoxy)-3,4-difluoro-2-((2-fluoro-4-iodophenyl)amino)benzamide], the “synergistic inhibition of PDPK1i (GSK2334470) with PD0325901” value [1] was “broad synergistic effects”.
In the case of `CC(=O)Nc1cccc(-n2c(=O)n(C3CC3)c(=O)c3c(Nc4ccc(I)cc4F)n(C)c(=O)c(C)c32)c1` [trametinib, N-(3-(3-cyclopropyl-5-((2-fluoro-4-iodophenyl)amino)-6,8-dimethyl-2,4,7-trioxo-3,4,6,7-tetrahydropyrido[4,3-d]pyrimidin-1(2H)-yl)phenyl)acetamide], the “frequency of CD8+ T cells within the CD45+ cell compartment” value (1014 tumors) is reported as “intermediate effect”, the 1014 cell proliferation (1014 cells) is reported as “suppressed” and the tumor growth (SK-MEL-30 xenografts) is reported as “suppressed tumor growth modestly”.
